Here are results for 29 compounds from patent US8697742B2, “BCRP/ABCG2 inhibitor” (Kabushiki Kaisha Yakult Honsha, priority 2005, dated 2014).

≈ marks a conversion by molar mass, not a printed value. Where a name gives a salt, the structure may show the parent alone.

Assay [1] concerns A549/SN-38-4 cells. In words: Effect of overcoming SN-38 resistance of BCRP-expressing A549/SN-38-4 cells. The class given is cell-based, human. The settings on record: concentration for 50% reduction of relative SN-38 resistance value (IC50 A549/SN-38-4 / IC50 A549), 48 hours culture with SN-38; for EC50: Homo sapiens, A549, 48 h, read-out: Effect of overcoming resistance EC50. The protocol:
The human lung cancer A549 cells or the A549/SN-38-4 cells were suspended in a Ham's F-12 medium containing 10% FBS, 100 U/mL of penicillin, and 100 μg/mL of streptomycin (10% FBS/Ham's F-12), and the resultant suspension was inoculated into a 96-well microplate (2×10^3 cells/50 μL/well), followed by culturing at 5% CO2 and 37° C. overnight. […] After completion of culturing, the number of viable cells was counted by use of a viable cell counting reagent [TetraColor ONE (trademark), product of Seikagaku Corporation] according to the attached instruction manual. […] The greater the relative resistance value, the higher the level of acquired resistance.

Assay [2] has as its system K562/MDR cells. Put plainly: Effect on paclitaxel (multidrug) resistance of human MDR1 gene-transduced K562 cells. The format is cell-based. The settings on record: concentration for 50% reduction of relative paclitaxel resistance value, K562/MDR vs K562, 72 hours; for EC50: Homo sapiens, read-out: Effect of overcoming resistance EC50. The source says: After completion of culturing, the number of viable cells was counted by use of TetraColor ONE according to the manufacture's instruction manual.

Assay [3] has as its system HCT116/BCRP cells. Put plainly: Effect of overcoming anticancer agent resistance in vivo, HCT116/BCRP tumour in nude mice. Also on record: species or system human. The settings on record: day 21; for Tumor weight Mean ± S.D.: BALB/c nude mice; for Tumor growth inhibition ratio IR: vs control group. The source says:
A solvent was solely administered to a control group. On the day 21 from the start of administration, a tumor was extirpated from each mice and weighed, and the tumor growth inhibition ratio IR (%) was derived from the following equation: Tumor growth inhibition ratio IR(%)=(1−average tumor weight of each administration group/average tumor weight of control group)×100.

Where [4] appears, read: compound 12.5 mg/kg/day + CPT-11 10 mg/kg/day i.v. once a day for seven days.
[5] abbreviates: compound 25 mg/kg/day + CPT-11 10 mg/kg/day i.v. once a day for seven days.

Broadly, the EC50 is the concentration that produces a half-maximal response.

`COc1ccc(/C(C#N)=C/c2ccc(N)s2)cc1OC` [Compound 3, (Z)-3-(5-amino-thiophen-2-yl)-2-(3,4-dimethoxy-phenyl)-acrylonitrile]: the EC50 in assay [1] is 0.032 µg/mL (≈ 0.112 µM); in assay [2], over 5 µg/mL.

With `COc1ccc(/C(C#N)=C/c2ccc(N3CCCCC3)s2)cc1OC` [Compound 4, (Z)-2-(3,4-dimethoxy-phenyl)-3-(5-piperidin-1-yl-thiophen-2-yl)-acrylonitrile], the “Effect of overcoming resistance EC50” value in assay [1] is 0.012 µg/mL. In addition, the EC50 in assay [2] is over 5 µg/mL.

`COc1ccc(/C(C#N)=C/c2ccc(N3CCOCC3)s2)cc1OC` [Compound 5, (Z)-2-(3,4-dimethoxy-phenyl)-3-(5-morpholin-4-yl-thiophen-2-yl)-acrylonitrile]: the 50% effective concentration (EC50) in assay [1] is 0.013 µg/mL (≈ 0.0365 µM); in assay [2], over 5 µg/mL.

As to `COc1ccc(/C(C#N)=C/c2ccc(N3CCN(C)CC3)s2)cc1OC` [Compound 13, (Z)-2-(3,4-dimethoxy-phenyl)-3-[5-(4-methyl-piperazin-1-yl)-thiophen-2-yl]-acrylonitrile hydrochloride], in assay [1] (hydrochloride), the “Effect of overcoming resistance EC50” value was 0.033 µg/mL. Further, in assay [3] (setting [4]), the “Tumor weight Mean ± S.D.” value was found to be 0.87 ± 0.18 g and the “Tumor growth inhibition ratio IR” value amounted to 31.7%. Besides, in assay [3] (setting [5]), the “Tumor weight Mean ± S.D.” value is 0.83 ± 0.08 g and the “Tumor growth inhibition ratio IR” value was 35.0%.

Regarding `COc1ccc(/C(C#N)=C/c2ccc(N3CCC(OP(=O)([O-])[O-])CC3)s2)cc1OC.[Na+].[Na+]` [Compound 17, mono-(1-{5-[(Z)-2-cyano-2-(3,4-dimethoxy-phenyl)-vinyl]-thiophen-2-yl}-piperidin-4-yl)phosphate sodium salt], in assay [2], the EC50 was over 5 µg/mL.

On to `COc1ccc(/C(C#N)=C/c2ccc(N3CCC(OC(=O)CCC(=O)O)CC3)s2)cc1OC` [Compound 18, mono-(1-{5-[(Z)-2-cyano-2-(3,4-dimethoxy-phenyl)-vinyl]-thiophen-2-yl}-piperidin-4-yl)succinate], for which the “Effect of overcoming resistance EC50” value in assay [2] is over 5 µg/mL.

Consider `COc1ccc(/C(C#N)=C/c2ccc([N+](=O)[O-])o2)cc1OC` [Compound 19, (Z)-2-(3,4-dimethoxy-phenyl)-3-(5-nitro-furan-2-yl)-acrylonitrile], for which the results for the EC50 in assay [1] and in assay [2] were 0.014 µg/mL (≈ 0.0466 µM) and over 5 µg/mL, respectively.

As to `COc1ccc(/C(C#N)=C/c2ccc(CO)o2)cc1OC` [Compound 20, (Z)-2-(3,4-dimethoxy-phenyl)-3-(5-hydroxy-methyl-furan-2-yl)-acrylonitrile], the figures for the “Effect of overcoming resistance EC50” value in assay [1] and in assay [2] were 0.49 µg/mL and over 5 µg/mL, respectively.

With `COc1ccc(/C(C#N)=C/c2ccc(N3CCOCC3)o2)cc1OC` [Compound 25, (Z)-2-(3,4-dimethoxy-phenyl)-3-(5-morpholin-4-yl-furan-2-yl)-acrylonitrile], the EC50 in assay [1] is 0.013 µg/mL (≈ 0.0382 µM); in assay [2], over 5 µg/mL.

On to `COc1ccc(/C(C#N)=C/c2ccc(N3CCC(O)CC3)o2)cc1OC` [Compound 26, (Z)-2-(3,4-dimethoxy-phenyl)-3-[5-(4-hydroxy-piperidin-1-yl)-furan-2-yl]-acrylonitrile], for which the EC50 is 0.075 µg/mL (≈ 0.212 µM) in assay [1] and over 5 µg/mL in assay [2].

Turning to `COc1ccc(/C(C#N)=C/c2ccc(N3CCN(C)CC3)o2)cc1OC` [Compound 27, (Z)-2-(3,4-dimethoxy-phenyl)-3-[5-(4-methyl-piperazin-1-yl)-furan-2-yl]-acrylonitrile], in assay [1], the “Effect of overcoming resistance EC50” value is 0.2 µg/mL. The EC50 in assay [2] was over 5 µg/mL.

As to `COc1ccc(/C(C#N)=C/c2ccc(N3CCN(CCO)CC3)o2)cc1OC` [Compound 28, (Z)-2-(3,4-dimethoxy-phenyl)-3-{5-[4-(2-hydroxy-ethyl)-piperazin-1-yl]-furan-2-yl}-acrylonitrile], the EC50 is 0.12 µg/mL (≈ 0.313 µM) in assay [1] and over 5 µg/mL in assay [2].

`COc1ccc(/C(C#N)=C/c2ccncc2)cc1OC` [Compound 30, (Z)-2-(3,4-dimethoxy-phenyl)-3-pyridin-4-yl-acrylonitrile]: the EC50 in assay [1] was 0.02 µg/mL (≈ 0.0751 µM); in assay [2], over 5 µg/mL.

In the case of `COc1ccc(/C(C#N)=C/c2cccnc2)cc1OC` [Compound 34, (Z)-2-(3,4-dimethoxy-phenyl)-3-pyridin-3-yl-acrylonitrile], the “Effect of overcoming resistance EC50” value in assay [1] was determined as 0.058 µg/mL. Further, in assay [2], the EC50 is over 5 µg/mL.

On to `COc1ccc(/C(C#N)=C/c2ccccn2)cc1OC` [Compound 38, (Z)-2-(3,4-dimethoxy-phenyl)-3-pyridin-2-yl-acrylonitrile], for which the figures for the EC50 in assay [1] and in assay [2] were 0.06 µg/mL (≈ 0.225 µM) and over 5 µg/mL, respectively.

`COc1ccc(/C(C#N)=C/c2ccc[nH]2)cc1OC.Cl` [Compound 40, (Z)-2-(3,4-dimethoxy-phenyl)-3-(1H-pyrrol-2-yl)-acrylonitrile hydrochloride]: the EC50 is 0.075 µg/mL in assay [1] and over 5 µg/mL in assay [2].

Turning to `COc1ccc(/C(C#N)=C/c2cnc(SC)n2Cc2ccccc2)cc1OC` [Compound 42, (Z)-3-(3-benzyl-2-methylsulfanyl-3H-imidazol-4-yl)-2-(3,4-dimethoxy-phenyl)-acrylonitrile], the EC50 was 0.22 µg/mL (≈ 0.562 µM) in assay [1] and over 5 µg/mL in assay [2].

Take `COc1ccc(/C(C#N)=C/c2sc(-c3ccccc3)nc2C)cc1OC` [Compound 43, (Z)-2-(3,4-dimethoxy-phenyl)-3-(4-methyl-2-phenyl-thiazol-5-yl)-acrylonitrile]: the EC50 was 0.16 µg/mL (≈ 0.441 µM) in assay [1] and over 5 µg/mL in assay [2].

As for `COc1ccc(/C=C(\C#N)c2cccnc2)cc1OC` [Compound 44, (Z)-3-(3,4-dimethoxy-phenyl)-2-pyridin-3-yl-acrylonitrile], the EC50 in assay [1] was 0.056 µg/mL (≈ 0.21 µM); in assay [2], over 5 µg/mL.

On to `COc1ccc(/C=C(\C#N)c2ccccn2)cc1OC` [Compound 45, (Z)-3-(3,4-dimethoxy-phenyl)-2-pyridin-2-yl-acrylonitrile], for which the EC50 in assay [1] is 0.05 µg/mL (≈ 0.188 µM); in assay [2], over 5 µg/mL.

Take `COc1ccc(/C(C#N)=C/c2ccc(N3CCC(OP(=O)(O)O)CC3)o2)cc1OC` [Compound 52, mono-(1-{5-[(Z)-2-cyano-2-(3,4-dimethoxy-phenyl)-vinyl]-furan-2-yl}-piperidin-4-yl)phosphate]: the “Effect of overcoming resistance EC50” value in assay [2] was over 5 µg/mL.

For `COc1ccc(/C(C#N)=C/c2ccc(N3CCC(OP(=O)([O-])[O-])CC3)o2)cc1OC.[Na+].[Na+]` [Compound 53, mono-(1-{5-[(Z)-2-cyano-2-(3,4-dimethoxy-phenyl)-vinyl]-furan-2-yl}-piperidin-4-yl)phosphate sodium salt], in assay [2], the EC50 was over 5 µg/mL.

Take `COc1ccc(/C=C(\C#N)c2cccs2)cc1OC` [Compound 55, (E)-3-(3,4-dimethoxy-phenyl)-2-thiophen-2-yl-acrylonitrile]: the EC50 in assay [2] is over 5 µg/mL.

In the case of `COc1ccc(/C=C(\C#N)c2ccsc2)cc1OC` [Compound 56, (Z)-3-(3,4-dimethoxy-phenyl)-2-thiophen-3-yl-acrylonitrile], the EC50 is 0.037 µg/mL (≈ 0.136 µM) in assay [1] and over 5 µg/mL in assay [2].

On to `COc1ccc(/C(C#N)=C/c2ccc(N3CCN(CCO)CC3)s2)cc1OC.COc1ccc(/C(C#N)=C/c2ccc(N3CCN(CCO)CC3)s2)cc1OC.O=S(=O)(O)O` [Compound 100, (Z)-2-(3,4-dimethoxy-phenyl)-3-{5-[4-(2-hydroxy-ethyl)-piperazin-1-yl]-thiophen-2-yl}-acrylonitrile ½ sulfate], for which the “Effect of overcoming resistance EC50” value in assay [1] is 0.012 µg/mL.

Turning to `COc1ccc(/C(C#N)=C/c2ccc(N3CCN(CCO)CC3)s2)cc1OC.O=S(=O)(O)O` [Compound 101, (Z)-2-(3,4-dimethoxy-phenyl)-3-{5-[4-(2-hydroxy-ethyl)-piperazin-1-yl]-thiophen-2-yl}-acrylonitrile sulfate], the EC50 in assay [1] stood at 0.013 µg/mL.

As for `COc1ccc(/C(C#N)=C/c2ccc(N3CCN(CCO)CC3)s2)cc1OC` [Compound 102, (Z)-2-(3,4-dimethoxy-phenyl)-3-{5-[4-(2-hydroxy-ethyl)-piperazin-1-yl]-thiophen-2-yl}-acrylonitrile nitrate], the “Effect of overcoming resistance EC50” value in assay [1] (nitrate) was found to be 0.017 µg/mL.

In the case of “(E)-2-benzothiazol-1-yl-3-(3,4-dimethoxy-phenyl)-acrylonitrile [Compound 71]”, the “Effect of overcoming resistance EC50” value in assay [1] worked out at 0.013 µg/mL.

For “(Z)-2-(3,4-dimethoxy-phenyl)-3-pyridin-4-yl-acrylonitrile N-oxide [Compound 33]”, the “Effect of overcoming resistance EC50” value was 0.52 µg/mL in assay [1] and over 5 µg/mL in assay [2].
